System: LRRK2^G2019S, PINK1 null and SNCA^A53T flies
Assay: Fly lifespan (survival curves)
Format: in vivo
Experimental: FIG. 4A-FIG. 4I. Miro1 Reducer Rescues PD-Relevant Phenotypes in Flies. For all panels, when Miro1 Reducer was not added, the same volume of the solvent, DMSO, was supplied in fly food. Drug administration (2.5 μM) was started from day 2. (FIG. 4A-FIG. 4C) Survival curves of LRRK2^G2019S (FIG. 4A), PINK1^B9 (imprecise excision, null) and PINK1^RV (the precise excision control for PINK1^B9) (FIG. 4B), and SNCA^A53T flies (FIG. 4C). n=58-150. (FIG. 4D) Dopaminergic (DA) neurons in the PPM1/2 clusters of 22-day old flies were immunostained with anti-TH. (FIG. 4D-FIG. 4F) Quantification of the DA neuron number in the PPL1 or PPM1/2 cluster (total number divided by 2 for each brain). (FIG. 4D) LRRK2^G2019S. n=6-8 brains. (FIG. 4E) PINK1^B9 (“−”) and PINK1^RV (“+”). n=9-16. (FIG. 4F) SNCA^A53T. n=9-11. (FIG. 4G-FIG. 4I) Climbing ability (Average PI±S.E.M) of adult flies. n=24-47 flies.
In order to cross-validate the neuroprotective effect of Miro1 Reducer in vivo, we fed the compound to three well-established fly PD models: (1) Actin-GAL4>UAS-LRRK2^G2019S (ubiquitous expression of human pathogenic LRRK2); (2) PINK1 null; and (3) Elav-GAL4>UAS-SNCA^A53T (neuronal expression of human pathogenic alpha-synuclein). […]
Fly Behavior and Biochemical Assays. […] Flies were transferred into fresh vials and the numbers of dead and escaped flies were scored 3 times a week. […]

Structure (SMILES): O=C(Nc1ccc(Nc2cc(-n3ccnc3)ncn2)cc1)Nc1cccc(F)c1 [Miro1 Reducer]
- long-term toxicity (lifespan) (2.5 μM in food from adulthood, wild-type or PD flies): no long-term toxicity
- lifespan of SNCA^A53T flies (2.5 μM in food, Log-Rank P=0.00019 0 μM v.s. 2.5 μM): extended the shortened lifespan
